One compound from PMC3391587 (Journal of Nuclear Medicine, 2012) can be followed below.

A short description of the series: HPLC radiometabolite analysis of arterial plasma after [^18F]DPA-714 injection. In kind it is in vivo. The conditions noted are these: rat arterial plasma, mean ± SD.

Regarding `CCN(CC)C(=O)Cc1c(-c2ccc(OCC[18F])cc2)nn2c(C)cc(C)nc12` [[^18F]DPA-714, N,N-diethyl-2-(2-(4-(2-(^18F)-fluoroethoxy)phenyl)-5,7-dimethylpyrazolo[1,5-a]pyrimidin-3-yl)acetamide], the “% [^18F]DPA-714 (parent) in plasma” value turned out to be 68 ± 7.4% (P.I. time 12 (min), N=7); 44 ± 8.9% (P.I. time 30 (min), N=7); 27 ± 6.2% (P.I. time 60 (min), N=7); 22 ± 17.8% (P.I. time 90 (min), N=5).
